Data as given in patent publication US20020025940A1, “Methods and compositions for sensitive and rapid, functional identification of genomic polynucleotides and use for cellular assays in drug discovery” (Aurora Biosciences Corporation, priority 1997, published 2002).

System: repressed BLEC Jurkat clones
Assay: Characterization of repressed BLEC Jurkat clones, relative repression of beta-lactamase
Type: cell-based, human
Details: PHA 10 microgram/ml, CsA 100 nM, PMA 8 nM, Thaps 1 microM
Text: These clones represent cells in which the BLEC trapping construct had integrated into a gene down regulated by PHA (T-cell) activation. Thus, these cells report the transcriptional repression of a gene upon cellular activation. Individual clones were identified and isolated by FACS using CCF2/AM to detect beta-lactamase activity using the following repressed sorting paradigm.
A first sort was used to isolate a population of cells that constitutively express beta-lactamase by identifying and isolating a population of blue cells from an unstimulated population of BLEC transfected Jurkat cells contacted with CCF2/AM. The sorted population of cells represented 2.89% of the unsorted population. These cells were cultured, divided into two pools, and stimulated with one of two different stimuli, either 10 micrograms/ml PHA for 18 hours, or 8 nM PMA and 1 microM Thapsigargin for 18 hours. These stimulated cells were contacted with CCF2 (loading in the presence of 400 PET (4% weight/volume) and Pluoronic 128 (100 micrograms/ml)) and the green cells in the population were sorted using FACS. The sorted population represented 8.41% of the cell population prior to the second sort. The third round of FACS was for single blue unstimulated cells. The population of cells obtained represented 18.2% of the cell population prior to the third sort.
This sorting procedure represents a 2,260-fold enrichment for PHA repressible clones. These clones have the beta-lactamase gene integrated into a gene that is down regulated by PHA stimulation of the cells. Six of 80 individual clones tested were repressed by PHA or PMA+Thapsigargin. All of these clones were confirmed to be independent integration events by genomic Southern analysis using a DNA probe encoding beta-lactamase.
Table 7 and Table 8 provide data similar to that provided in Table 5 for all of the clones obtained by the methods of Examples 5 to 7.

phytohemaglutinin [PHA]
Relative repression of beta-lactamase in the indicated clone by the following activator (clone 183/97pptr2): 10
Relative repression of beta-lactamase in the indicated clone by the following activator (clone J83/97pptr1): 90
Relative repression of beta-lactamase in the indicated clone by the following activator (clone J83/97pptr3): 10
Relative repression of beta-lactamase in the indicated clone by the following activator (clone J83/97pptr4): 60
Relative repression of beta-lactamase in the indicated clone by the following activator (clone J83/97pptr5): 50
Relative repression of beta-lactamase in the indicated clone by the following activator (clone J83/97pptr6): 70
